Experimental findings from ChEMBL document CHEMBL3407344, “Computer-guided drug repurposing: identification of trypanocidal activity of clofazimine, benidipine and saquinavir” (Eur J Med Chem, 2015) are described below.

Molecules are shown by their SMILES. Calls of active or inactive are those of the source. The calls are words filed in the database; no cut-off is given here.

For one data set, the system named is Plasma. Briefly: Plasma concentration in leprosy patient at […], po dosed daily. The data set is classed as ADME, organism-based. More on the design: route oral. The following applies: human, in vivo.
Data set [1] has as its system Trypanosoma cruzi. Briefly: Trypanocidal activity against GFP expressing Trypanosoma cruzi Y epimastigotes assessed as inhibition of parasite proliferation at 20 uM measured after few hrs by hemocytometry based cell counting method. The data set is classed as functional, organism-based.
The target in data set [2] is Cruzipain (Trypanosoma cruzi) (UniProt P25779). Briefly: Inhibition of Trypanosoma cruzi cruzaine at 100 uM using mMBz-Pro-Phe-Arg-pNA substrate incubated for 5 mins by UV-vis spectrophotometry.
Data set [3] can be described thus: Toxicity in orally dosed mouse. Type of data set: organism-based. The following applies: in vivo, po.
Data set [4] deals with Trypanosoma cruzi. Briefly: Trypanocidal activity against GFP expressing Trypanosoma cruzi Y epimastigotes in rat H9C2 cell monolayers for 24 hrs infected with 30 mins compound pre-treated parasite obtained from infected African green monkey Vero cells assessed as reduction in parasite count at 5 uM measured after 96 hrs by confocal microscopy. Type of data set: functional, organism-based.

The subject of data set [5] is H9c2. Briefly: Cytotoxicity against rat H9c2 cells assessed as effect on metabolic activity at 5 uM by alamar blue assay. The data set is classed as ADME, cell-based. The following applies: h9c2, 5 µM. Background: Resazurin is reduced to fluorescent resorufin, in cell work by metabolically active cells.
In data set [6] the test system is Trypanosoma cruzi. Briefly: Trypanocidal activity against GFP expressing Trypanosoma cruzi Y epimastigotes in rat H9C2 cell monolayers for 12 hrs infected with 30 mins compound pre-treated parasite obtained from infected African green monkey Vero cells assessed as reduction in parasite count at 5 uM measured after 48 hrs by confocal microscopy. Type of data set: functional, organism-based.

Data set [7] relates to Trypanosoma cruzi. Briefly: Trypanocidal activity against GFP expressing Trypanosoma cruzi Y epimastigotes in rat H9C2 cell monolayers for 12 hrs infected with 30 mins compound pre-treated parasite obtained from infected African green monkey Vero cells assessed as reduction in cell invasion at 5 uM measured after 48 hrs by confocal microscopy. The data set is classed as functional.

Data set [8] concerns Trypanosoma cruzi. Briefly: Trypanocidal activity against GFP expressing Trypanosoma cruzi Y C57BL/6J mouse acute model of trypanosomal infection assessed as reduction in parasitemia at 20 mg/kg/day, ip measured at 10,14 and 20 days post infection. The data set is classed as functional. Particulars: route intraperitoneal.
Data set [9] relates to Trypanosoma cruzi. Briefly: Trypanocidal activity against GFP expressing Trypanosoma cruzi Y epimastigotes assessed as effect on parasite motility at 1 uM to 20 uM measured after 1 to 3 days by hemocytometry based cell counting method. Type of data set: functional, organism-based.
The target in data set [10] is Cruzipain (Trypanosoma cruzi) (UniProt P25779). Briefly: Inhibition of Trypanosoma cruzi cruzaine using mMBz-Pro-Phe-Arg-pNA substrate incubated for 5 mins by UV-vis spectrophotometry.
In data set [11] the test system is Trypanosoma cruzi. Briefly: Trypanocidal activity against GFP expressing Trypanosoma cruzi Y C57BL/6J mouse acute model of trypanosomal infection assessed as reduction in cardiac amastigote nests counts at 20 mg/kg/day, ip measured at 10,14 and 20 days post infection by HE staining based conventional microscopy. Type of data set: functional, organism-based.
Data set [12] concerns Trypanosoma cruzi. Briefly: Trypanocidal activity against GFP expressing Trypanosoma cruzi Y epimastigotes assessed as inhibition of parasite proliferation at 1 uM to 20 uM and measured after 4 days by hemocytometry based cell counting method. The data set is classed as functional. The following applies: 96 h.
Data set [13] relates to Trypanosoma cruzi. Briefly: Trypanocidal activity against GFP expressing Trypanosoma cruzi Y epimastigotes assessed as effect on parasite morphology at 1 uM to 20 uM measured after 1 to 3 days by hemocytometry based cell counting method. The data set is classed as functional, organism-based.
The test system of data set [14] is Trypanosoma cruzi. Briefly: Trypanocidal activity against GFP expressing Trypanosoma cruzi Y C57BL/6J mouse acute model of trypanosomal infection assessed as reduction in parasitemia at 100 mg/kg/day, ip measured at 10,14 and 20 days post infection. The data set is classed as functional, organism-based.
Data set [15] relates to Trypanosoma cruzi. Briefly: Trypanocidal activity against GFP expressing Trypanosoma cruzi Y C57BL/6J mouse acute model of trypanosomal infection assessed as reduction in cardiac amastigote nests counts at 100 mg/kg/day, ip measured at 10,14 and 20 days post infection by HE staining based conventional microscopy. Type of data set: functional, organism-based.
For data set [16], the system named is Trypanosoma cruzi. Briefly: Trypanocidal activity against GFP expressing Trypanosoma cruzi Y epimastigotes in rat H9C2 cell monolayers for 24 hrs infected with 30 mins compound pre-treated parasite obtained from infected African green monkey Vero cells assessed as reduction in parasite count at 10 uM measured after 96 hrs by confocal microscopy. The data set is classed as functional, organism-based.

The test system of data set [17] is Trypanosoma cruzi. Briefly: Trypanocidal activity against GFP expressing Trypanosoma cruzi Y epimastigotes assessed as inhibition of parasite proliferation at 1 uM to 20 uM and measured during stationary phase by hemocytometry based cell counting method. The data set is classed as functional, organism-based.
In data set [18] the test system is H9c2. Briefly: Cytotoxicity against rat H9c2 cells assessed as effect on metabolic activity at 10 uM by alamar blue assay. The data set is classed as ADME, cell-based. Particulars: h9c2, 10 µM.
Data set [19] has as its system Trypanosoma cruzi. Briefly: Trypanocidal activity against GFP expressing Trypanosoma cruzi Y epimastigotes in rat H9C2 cell monolayers for 12 hrs infected with 30 mins compound pre-treated parasite obtained from infected African green monkey Vero cells assessed as reduction in cell invasion at 10 uM measured after 48 hrs by confocal microscopy. The data set is classed as functional.

Data set [20] concerns Trypanosoma cruzi. Briefly: Trypanocidal activity against GFP expressing Trypanosoma cruzi Y epimastigotes in rat H9C2 cell monolayers for 12 hrs infected with 30 mins compound pre-treated parasite obtained from infected African green monkey Vero cells assessed as reduction in parasite count at 10 uM measured after 48 hrs by confocal microscopy. The data set is classed as functional, organism-based.

Data set [21] relates to Trypanosoma cruzi. Briefly: Trypanocidal activity against GFP expressing Trypanosoma cruzi Y C57BL/6J mouse acute model of trypanosomal infection assessed as reduction in parasitemia at 10 mg/kg/day, ip measured at 10,14 and 20 days post infection. Type of data set: functional. Particulars: route intraperitoneal.
In data set [22] the test system is Trypanosoma cruzi. Briefly: Trypanocidal activity against GFP expressing Trypanosoma cruzi Y epimastigotes in rat H9C2 cell monolayers for 24 hrs infected with 30 mins compound pre-treated parasite obtained from infected African green monkey Vero cells assessed as reduction in parasite count at 2.5 uM measured after 96 hrs by confocal microscopy. The data set is classed as functional, organism-based.

The test system of data set [23] is H9c2. Briefly: Cytotoxicity against rat H9c2 cells assessed as effect on metabolic activity at 2.5 uM by alamar blue assay. Type of data set: ADME, cell-based. Particulars: h9c2, 2.5 µM.
For data set [24], the system named is Trypanosoma cruzi. Briefly: Trypanocidal activity against GFP expressing Trypanosoma cruzi Y epimastigotes in rat H9C2 cell monolayers for 12 hrs infected with 30 mins compound pre-treated parasite obtained from infected African green monkey Vero cells assessed as reduction in cell invasion at 2.5 uM measured after 48 hrs by confocal microscopy. Type of data set: functional.

The subject of data set [25] is Trypanosoma cruzi. Briefly: Trypanocidal activity against GFP expressing Trypanosoma cruzi Y epimastigotes in rat H9C2 cell monolayers for 12 hrs infected with 30 mins compound pre-treated parasite obtained from infected African green monkey Vero cells assessed as reduction in parasite count at 2.5 uM measured after 48 hrs by confocal microscopy. The data set is classed as functional, organism-based.

Sequence of Cruzipain (Trypanosoma cruzi) (P25779 123-467 limits assumed): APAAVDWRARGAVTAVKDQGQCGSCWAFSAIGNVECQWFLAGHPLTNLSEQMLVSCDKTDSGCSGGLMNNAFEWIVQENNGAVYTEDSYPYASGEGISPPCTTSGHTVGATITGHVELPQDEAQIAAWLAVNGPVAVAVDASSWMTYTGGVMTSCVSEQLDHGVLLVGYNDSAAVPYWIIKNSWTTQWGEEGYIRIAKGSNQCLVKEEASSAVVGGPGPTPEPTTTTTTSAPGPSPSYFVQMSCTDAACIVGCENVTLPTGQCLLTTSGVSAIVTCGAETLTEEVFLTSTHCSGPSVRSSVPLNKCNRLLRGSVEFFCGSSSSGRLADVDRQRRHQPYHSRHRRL

In general, LD50 refers to the dose at which mortality reaches 50%. As usually defined, the inhibition in vivo is the share of the control response that was lost under treatment. By LC50 is commonly meant the concentration that kills 50% of the test population. In the data set on Plasma, `CC(C)/N=c1\cc2n(-c3ccc(Cl)cc3)c3ccccc3nc-2cc1Nc1ccc(Cl)cc1` [CLOFAZIMINE] came in with a concentration of 2100 nM. In addition, the inhibition result (with Trypanosoma cruzi [1]; in data set [2]; with Trypanosoma cruzi [11]) was “Active” throughout. Moreover, the LD50 in [3] came to 5000 mg/kg. For the same compound, the outcome in the data set on Trypanosoma cruzi [4], in the data set with Trypanosoma cruzi [6], in the data set with Trypanosoma cruzi [9] and with Trypanosoma cruzi [13] was Active. The Activity entry with H9c2 [5] was “Non-toxic”. In addition, the “fold change (FC)” value in the data set on Trypanosoma cruzi [7] is given as 3. Also, the inhibition in vivo at 20 mg/kg/day in the data set with Trypanosoma cruzi [8] is 40%. Further, the inhibition result in data set [10] is “Dose-dependent effect”. Also, the 50% lethal concentration (LC50) in the data set on Trypanosoma cruzi [12] is 10.6 µM.
For the compound `O=C(Cn1ccnc1[N+](=O)[O-])NCc1ccccc1`, the inhibition result in the data set with Trypanosoma cruzi [14] and with Trypanosoma cruzi [15] was “Active” each time.
`CC(C)(C)NC(=O)[C@@H]1C[C@@H]2CCCC[C@@H]2CN1C[C@@H](O)[C@H](Cc1ccccc1)NC(=O)[C@H](CC(N)=O)NC(=O)c1ccc2ccccc2n1` [SAQUINAVIR]: the outcome in the data set with Trypanosoma cruzi [16], with Trypanosoma cruzi [9], with Trypanosoma cruzi [20] and in the data set with Trypanosoma cruzi [13] was Active. Also, the inhibition result (in data set [2]; with Trypanosoma cruzi [17]) was “Active” in each case. Also, in the data set with H9c2 [18], the Activity entry is recorded as “Non-toxic”. Further, the inhibition result in data set [10] is “Dose-dependent effect”. Besides, in the data set with Trypanosoma cruzi [19], the “fold change (FC)” value turned out to be 3.
On to `COC(=O)C1=C(C)NC(C)=C(C(=O)OC2CCCN(Cc3ccccc3)C2)C1c1cccc([N+](=O)[O-])c1` (configuration not stated) [BENIDIPINE], for which the inhibition in vivo at 10 mg/kg/day in the data set on Trypanosoma cruzi [21] was 40%. Further, the inhibition result in data set [2] is “Active”. The result in the data set on Trypanosoma cruzi [22], in the data set on Trypanosoma cruzi [25], in the data set with Trypanosoma cruzi [9] and with Trypanosoma cruzi [13] was Active. Further, in [3], the 50% lethal dose (LD50) was more than 300 mg/kg. In addition, the Activity entry with H9c2 [23] is reported as “Non-toxic”. Further, the “fold change (FC)” value in the data set on Trypanosoma cruzi [24] is reported as 3. Further, the inhibition result in data set [10] was “Dose-dependent effect”. In addition, in the data set on Trypanosoma cruzi [12], the LC50 turned out to be 19.5 µM.
On to `COc1ccc(CCN(C)CCCC(C#N)(c2ccc(OC)c(OC)c2)C(C)C)cc1OC` (configuration not stated), for which, in data set [2], the inhibition entry was “inactive”.
